In PMC5656322, “BAK1 is involved in AtRALF1-induced inhibition of root cell expansion” (PLoS Genetics, 2017):
Where no end group is shown, it is not given here.

Assays:
[1] = system: Arabidopsis seedlings, primary root; experiment: Root growth inhibition assay, liquid medium, 24-well plates; type: in vivo, Arabidopsis thaliana; conditions: 10 μM, 2 days
Method: (A) and (B) Arabidopsis seedlings (2 days old) were treated with 10 μM AtRALF1 or water (H20) for 2 days. The values are the mean ± SD of at least 25 seedlings. Triple asterisks indicate P < 0.01 (Student’s t test); ns, not significant. (C) Four-day-old seedlings were transferred to media containing different concentrations of AtRALF1, and the primary root length was measured after 8 days of treatment. The data represent the mean value ± SD of 30 seedlings. […] Representative Arabidopsis seedlings after 8 days of treatment with AtRALF1 are shown below. Seedlings were arranged on plates after the treatment for imaging. Scale bars, 1 cm. (D) Two-day-old seedlings were treated with 10 μM AtRALF1 or water for 2 days, and root cell length was measured after 2 days of treatment. Cells from the root endodermis in the differentiation zone were measured. The values are the mean ± SD of approximately 150 cells. Triple asterisks indicate P < 0.01 (Student’s t test); ns, not significant.
Aliquots of 1 ml of medium containing seeds were distributed into 24-well plates. The peptides (10 μM) were added after 2 days, and the root length was measured 2 days after treatment. To maximize root growth, the seeds were germinated in vertical plates. […] The root length was measured 8 days after treatment unless stated otherwise. Control plants were grown under identical conditions in a peptide-free medium. Quantitative data were obtained as previously described. The experiments were repeated at least 3 times using independent biological replicates with similar results. The data from one representative experiment are shown. For cell length measurements, AtRALF1 peptide (10 μM) was added after 2 days of germination, and the cell length was measured after 2 days of treatment. The cell wall was stained with a 1 mg ml^-1 propidium iodide solution (Sigma) in the dark for 15 min and washed twice with water. Cells of the endodermis of the root differentiation zone were imaged and measured using confocal microscopy (Olympus FV1000). Approximately 30 plants from each genetic background and at least 5 cells per root were measured. The wavelengths for excitation and emission were 555 and 655 nm, respectively. Image processing was completed using the Olympus FluoView software.
Arabidopsis seedlings (2-days-old) were treated with 10 μM AtRALF1 or water (H20) for 2 days. The values are the mean ± SD of at least 25 seedlings. Triple asterisks indicate P < 0.01 (Student’s t test); ns, not significant. (PDF) Click here for additional data file.
Supplementary file pgen.1007053.s002.pdf: S2 Fig Loss-of-function bak1 mutants are sensitive to the inhibitory activity of AtRALF23/34 on root growth. Arabidopsis seedlings (2-day-old) were treated with 10 μM RALF1(9–49), RALF1(I6A), AtRALF1, AtRALF23 and AtRALF34 or water (H20) for 2 days. The values are the mean ± SD of at least 20 seedlings. […] (PDF) Click here for additional data file.

[2] = biological target: T1, BAK1-ECD (Arabidopsis thaliana, UniProt Q94F62); experiment: Isothermal titration calorimetry (ITC); type: binding
T1 construct: Isothermal titration calorimetry (ITC) of the extracellular domain of BAK1 (BAK1-ECD) vs. AtRALF1; made in house; host or cells: Escherichia coli Rosetta DE3 or BL21
T1 sequence (Q94F62 26-225 limits assumed): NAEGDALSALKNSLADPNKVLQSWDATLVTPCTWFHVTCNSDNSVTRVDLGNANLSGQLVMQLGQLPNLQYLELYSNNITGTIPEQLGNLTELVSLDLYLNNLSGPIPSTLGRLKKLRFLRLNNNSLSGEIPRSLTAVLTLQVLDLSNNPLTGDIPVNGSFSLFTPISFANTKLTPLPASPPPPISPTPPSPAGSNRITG
From the text: Fig 6 AtRALF1 interacts physically with BAK1 protein. (A) The active AtRALF1 peptide interacts with the extracellular domain (ECD) of BAK1 (BAK1-ECD) in yeast. The AtRALF1 protein fused to the GAL4 DNA-binding domain (AtRALF1-pGBKT7) was used as bait to test its interaction with the extracellular domain of the proteins fused to the GAL4 activation domain (pGADT7): BAK1 (BAK1-ECD), BAK7 (BAK7-ECD), BRI1 (BRI1-ECD) and FLS2 (FLS2-ECD). (B) Blueprint showing the truncated proteins from the extracellular domain of BAK1 tested in the two-hybrid assay. The extracellular domain of BAK1 comprises leucine zippers (LZ), 5 leucine rich-regions (LRRs) and a proline-rich region (pro-rich). (C) AtRALF1-pGBKT7 was used as bait to test its interaction with truncated proteins fused to the GAL4 activation domain (pGADT7). The transformed yeast cells in (A) and (C) were selected on a synthetic complete medium lacking leucine, tryptophan and histidine to test interactions. (D, E) Co-immunoprecipitation (Co-IP) in vitro between the extracellular domain of BAK1 (HA-BAK1-ECD) and AtRALF1 recombinant purified proteins. HA-BAK1-ECD was detected with an anti-HA antibody. AtRALF1 was detected with an anti-RALF antibody. (F) Recombinant AtRALF1 is co-immunoprecipitated with the BAK1-GFP protein expressed in tobacco. BAK1-GFP was detected with an anti-GFP antibody. […] (G) Isothermal titration calorimetry (ITC) of the extracellular domain of BAK1 (BAK1-ECD) vs. AtRALF1 in ITC buffer (15 mM HEPES, pH 6.8). ITC experiments were simulated using 28 injections of BAK1-ED (0.7 mM, vol 10 μL) on AtRALF1 (0.03 mM vol cell = 1.4 mL) at 25°C. Kd = dissociation constant; N = number of binding sites.
ITC was performed using a VP ITC with a 1.4 ml standard cell and a 293 μl titration syringe. Proteins were dissolved in ITC buffer (15 mM HEPES (4-(2-hydroxyethyl)-1-piperazineethanesulfonic acid, pH 6.8) and the experiments were performed at 25°C. Molar protein concentration for BAK1-ECD and AtRALF1 were calculated using their molecular weight of 25,654.04 and 7,631 Da, respectively (determined by HPLC). The concentrations for the complex titrations were 0.7 mM of protein (BAK1-ECD) in the syringe and 0.03 mM of ligand (AtRALF1) in the cell at time intervals of 300 s (28 injections of volume 10 μl) to ensure that the titration peak returned to the baseline.
ITC data were corrected for the heat of dilution by subtracting the mixing enthalpies for titrant solution injections into protein free ITC buffer. Data were analyzed using the Origin software (version 7.0) as provided by the manufacturer. Independent experiments were repeated three times with similar results.

Substance	root growth inhibition ([1]; bak1-1 and bak1-3 mutants)	sensitivity to root growth inhibition ([1]; bak1-4 complemented with pBAK1:BAK1)	root growth inhibition ([1]; bri1-301, bsk3-2, sud1, bes1-D, bzr1-D, BRI OX, DWF4 OX lines)	sensitivity to root growth inhibition ([1]; loss-of-function bak1 mutants (bak1-4))	root growth inhibition ([1]; serk1, serk2, serk4 (bak7), serk5 (bak8) mutants)	number of binding sites ([2]; ITC experiment 1 of 3)	number of binding sites ([2]; ITC experiment 2 of 3)	N (number of binding sites) ([2]; representative experiment, Fig 6G, 15 mM HEPES, pH 6.8, 25°C) [sites]	activity of negative control peptides on root growth [1]	interaction with BAK1-ECD by ITC ([2]; BAK1-ECD 0.7 mM into 0.03 mM peptide, 15 mM HEPES, pH 6.8, 25°C)
AtRALF1: root-specific RALF isoform in Arabidopsis; recombinant peptide hormone produced in E. coli (ATTKYISYQSLKRNSVPCSRRGASYYNCQNGAQANPYSRGCSKIARCRS; ends and bridges not checked; cysteine pairing not given here)	exhibited no effect	recovered the sensitivity to the inhibitory effect of AtRALF1 treatment	exhibited root growth inhibition by AtRALF1	insensitive to the inhibitory activity of AtRALF1 on root growth	inhibited the root growth	1.27	1.5	1.27	–	–
RALF1(9–49): inactive AtRALF1 peptide which has a deletion of the first 8 amino acids (QSLKRNSVPCSRRGASYYNCQNGAQANPYSRGCSKIARCRS; ends and bridges not checked; cysteine pairing not given here; UniProt Q9SRY3 80-120, looked up, fragment)	–	–	–	–	–	–	–	–	inactive	no interaction between the inactive analog and BAK1-ECD
